# Key:
# [1] = test system: CD8+ lymphocytes in peripheral blood mononuclear cells of a CMV-positive donor; format: cell-based
# [2] = molecular target: T1, HLA-A2.1 (Homo sapiens, UniProt P04439, D140Y/D185E/D98H/E176V/E277Q/G131W/G231S/I119V/I121R/I166T/I218V/N151K/N90K/P208A/P217A/Q86G/Q94H/R138H/R169H); format: binding
# T1 construct: made in house
Substance,staining of CD8+ T-cells by exchange-generated MHC tetramers [1],recovery of UV-sensitive MHC multimer upon addition of peptide [2]
MART I 26-35 (A2L mutant),do not show measurable binding,–
HY 311-319: HLA-A2.1-binding peptide (FIDSYICQV),do not show measurable binding,highly increased recovery
"CMV pp65 495-503: CMV pp65 495-503 epitope peptide (NLVPMVATV; UniProt P06725 495-503, looked up, fragment)",detect CMV-specific T-cells at an equal frequency and with similar intensity as conventional CMV pp65 495-503-specific MHC tetramers,–
"GP100 (614-622): HLA-A3-binding peptide, control not expected to interact with HLA-A2.1 (LIYRRRLMK)",–,does not lead to a substantial increase in the recovery
